Test results published in PubChem BioAssay (NCI).
In brackets after ≈: the same amount, converted by molar mass. Several values for one entry are separate records, joined by “and”; a condition that tells them apart may be missing. Equal entries are not always repeated.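 How tested: cells in 96-well plates exposed to compound for 48 hours at five concentrations. GI50: concentration for 50% inhibition of growth. TGI marks complete inhibition of growth.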

Columns and labels:
Assay in all cases: inhibition of tumour cell growth, NCI panel, 48 h
PC-3 prostate = test system: PC-3 prostate
IGROV1 ovarian = test system: IGROV1 ovarian
RXF 393 renal = test system: RXF 393 renal
SF-268 CNS = test system: SF-268 CNS
OVCAR-3 ovarian = test system: OVCAR-3 ovarian
786-0 renal = test system: 786-0 renal
SW-620 colon = test system: SW-620 colon
SK-MEL-28 melanoma = test system: SK-MEL-28 melanoma
NCI-H460 lung = test system: NCI-H460 lung
UACC-257 melanoma = test system: UACC-257 melanoma
MALME-3M melanoma = test system: MALME-3M melanoma
M14 melanoma = test system: M14 melanoma
ACHN renal = test system: ACHN renal
K-562 leukemia = test system: K-562 leukemia
EKVX NSCLC = test system: EKVX NSCLC
CAKI-1 renal = test system: CAKI-1 renal
SK-MEL-5 melanoma = test system: SK-MEL-5 melanoma
CCRF-CEM leukemia = test system: CCRF-CEM leukemia
T-47D breast = test system: T-47D breast
LOX IMVI melanoma = test system: LOX IMVI melanoma
MDA-MB-435 = test system: MDA-MB-435
SR leukemia = test system: SR leukemia
OVCAR-5 ovarian = test system: OVCAR-5 ovarian
A549 NSCLC = test system: A549 NSCLC
COLO 205 colon = test system: COLO 205 colon
MCF7 breast = test system: MCF7 breast
BT-549 breast = test system: BT-549 breast
OVCAR-4 ovarian = test system: OVCAR-4 ovarian
NCI-H522 lung = test system: NCI-H522 lung
KM12 colon = test system: KM12 colon
SF-295 CNS = test system: SF-295 CNS
SN12C renal = test system: SN12C renal
SNB-19 CNS = test system: SNB-19 CNS
MDA-N = test system: MDA-N
HL-60(TB) leukemia = test system: HL-60(TB) leukemia
SNB-75 CNS = test system: SNB-75 CNS
DU-145 prostate = test system: DU-145 prostate
HCC-2998 colon = test system: HCC-2998 colon
NCI-H23 lung = test system: NCI-H23 lung
A498 renal = test system: A498 renal
RPMI-8226 leukemia = test system: RPMI-8226 leukemia
TK-10 renal = test system: TK-10 renal
HCT-116 colon = test system: HCT-116 colon
SK-MEL-2 melanoma = test system: SK-MEL-2 melanoma
HOP-92 NSCLC = test system: HOP-92 NSCLC
MDA-MB-231 breast = test system: MDA-MB-231 breast
UACC-62 melanoma = test system: UACC-62 melanoma
HOP-62 NSCLC = test system: HOP-62 NSCLC
HT29 colon = test system: HT29 colon
HS 578T breast = test system: HS 578T breast
U251 CNS = test system: U251 CNS
MOLT-4 leukemia = test system: MOLT-4 leukemia
NCI-H226 lung = test system: NCI-H226 lung
SK-OV-3 ovarian = test system: SK-OV-3 ovarian
SF-539 CNS = test system: SF-539 CNS
HCT-15 colon = test system: HCT-15 colon
OVCAR-8 ovarian = test system: OVCAR-8 ovarian
UO-31 renal = test system: UO-31 renal

COc1cc2c(c(OC)c1OC)-c1ccc(SC)cc1C(O)CC2 (stereo not drawn)
TGI (PC-3 prostate): > 100 µM and 63.9 µg/mL | TGI (IGROV1 ovarian): > 100 µM | GI50 (RXF 393 renal): 16.2 µg/mL (≈ 46.7 µM) | TGI (SF-268 CNS): 11.6 µM | TGI (OVCAR-3 ovarian): > 100 µM | TGI (786-0 renal): > 100 µM | TGI (SW-620 colon): > 100 µM | TGI (SK-MEL-28 melanoma): > 100 µM | TGI (NCI-H460 lung): 19.5 µM | TGI (UACC-257 melanoma): 32.8 µg/mL | TGI (MALME-3M melanoma): > 100 µM | TGI (M14 melanoma): > 100 µM and 34.9 µg/mL | TGI (ACHN renal): > 100 µM and 97.9 µg/mL | TGI (K-562 leukemia): < 0.01 µM | TGI (EKVX NSCLC): > 100 µM | TGI (CAKI-1 renal): 15.7 µM | TGI (SK-MEL-5 melanoma): 1.11 µM and 15.1 µg/mL | TGI (CCRF-CEM leukemia): > 100 µM | TGI (T-47D breast): > 100 µM | TGI (LOX IMVI melanoma): 74.1 µM | TGI (MDA-MB-435): 17 µg/mL | TGI (SR leukemia): 34.7 µg/mL | GI50 (OVCAR-5 ovarian): 0.249 µg/mL (≈ 0.719 µM) | TGI (OVCAR-5 ovarian): > 100 µM | TGI (A549 NSCLC): 34.6 µM | TGI (COLO 205 colon): 0.179 µM | TGI (MCF7 breast): > 100 µM and 36.1 µg/mL | TGI (BT-549 breast): 41 µg/mL | TGI (OVCAR-4 ovarian): > 100 µM | TGI (NCI-H522 lung): 235 nM and 33.7 µg/mL | TGI (KM12 colon): < 0.01 µM | TGI (SF-295 CNS): 83.7 µM | TGI (SN12C renal): 23.6 µM | TGI (SNB-19 CNS): > 100 µM | TGI (MDA-N): 0.461 µM | TGI (HL-60(TB) leukemia): < 0.01 µM | GI50 (SNB-75 CNS): 43.5 µg/mL (≈ 126 µM) | TGI (SNB-75 CNS): 34.7 µM | TGI (DU-145 prostate): > 100 µM | TGI (HCC-2998 colon): 18.3 µM | TGI (NCI-H23 lung): > 100 µM | TGI (A498 renal): > 100 µM and 0.0742 µg/mL | TGI (RPMI-8226 leukemia): > 100 µM and 45.9 µg/mL | GI50 (TK-10 renal): 14.2 µg/mL (≈ 41 µM) | TGI (TK-10 renal): > 100 µM | TGI (HCT-116 colon): > 100 µM | GI50 (SK-MEL-2 melanoma): 27.4 µg/mL (≈ 79.2 µM) | TGI (SK-MEL-2 melanoma): > 100 µM | TGI (HOP-92 NSCLC): > 100 µM | TGI (MDA-MB-231 breast): > 100 µM | TGI (UACC-62 melanoma): 20.4 µM

COc1cccc(C2c3cc4c(cc3OC(Nc3ccccc3)C2C)OCO4)c1OC (stereo not drawn)
TGI (PC-3 prostate): > 100 µM | TGI (HOP-62 NSCLC): > 100 µM | TGI (IGROV1 ovarian): > 100 µM | TGI (RXF 393 renal): > 100 µM | TGI (SF-268 CNS): > 100 µM | TGI (OVCAR-3 ovarian): > 100 µM | TGI (HT29 colon): > 100 µM | TGI (786-0 renal): 22.9 µM | TGI (SW-620 colon): > 100 µM | TGI (SK-MEL-28 melanoma): > 100 µM | TGI (NCI-H460 lung): > 100 µM | TGI (UACC-257 melanoma): 97.3 µM | TGI (MALME-3M melanoma): > 100 µM | TGI (M14 melanoma): > 100 µM | TGI (ACHN renal): > 100 µM | TGI (K-562 leukemia): > 100 µM | TGI (HS 578T breast): 61.4 µM | TGI (EKVX NSCLC): > 100 µM | TGI (CAKI-1 renal): > 100 µM | TGI (SK-MEL-5 melanoma): > 100 µM | TGI (CCRF-CEM leukemia): 27.6 µM | TGI (T-47D breast): > 100 µM | TGI (LOX IMVI melanoma): > 100 µM | TGI (MDA-MB-435): > 100 µM | TGI (SR leukemia): 11.2 µM | TGI (OVCAR-5 ovarian): > 100 µM | TGI (U251 CNS): > 100 µM | TGI (MOLT-4 leukemia): 17.9 µM | TGI (NCI-H226 lung): 12.1 µM | TGI (A549 NSCLC): > 100 µM | TGI (COLO 205 colon): 19.7 µM | TGI (MCF7 breast): > 100 µM | TGI (BT-549 breast): > 100 µM | TGI (NCI-H522 lung): 95 µM | TGI (KM12 colon): > 100 µM | TGI (SF-295 CNS): > 100 µM | TGI (SN12C renal): > 100 µM | TGI (SNB-19 CNS): > 100 µM | TGI (MDA-N): > 100 µM | TGI (HL-60(TB) leukemia): 6.26 µM | TGI (SNB-75 CNS): > 100 µM | TGI (SK-OV-3 ovarian): > 100 µM | TGI (DU-145 prostate): > 100 µM | TGI (SF-539 CNS): > 100 µM | TGI (HCT-15 colon): > 100 µM | TGI (HCC-2998 colon): > 100 µM | TGI (NCI-H23 lung): > 100 µM | TGI (A498 renal): > 100 µM | TGI (RPMI-8226 leukemia): 17.8 µM | TGI (TK-10 renal): > 100 µM | TGI (HCT-116 colon): > 100 µM | TGI (SK-MEL-2 melanoma): > 100 µM | TGI (HOP-92 NSCLC): 60.1 µM | TGI (OVCAR-8 ovarian): 33.1 µM | TGI (UO-31 renal): > 100 µM | TGI (MDA-MB-231 breast): > 100 µM | TGI (UACC-62 melanoma): > 100 µM
